Data reported in ChEMBL document CHEMBL1201862, “PubChem BioAssay data set” (2004).
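Cultured in 96-well plates, cells were exposed to test compound for 48 hours across five concentrations. The concentration for 50% growth inhibition is given as GI50.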 Active and inactive are the calls of the source. No stated cut-off is given here; in the data, active = GI50 up to about 1.1 µM and inactive = higher.

How the values were obtained:
Assay in all cases: NCI anticancer screen, dose series, 48 h
786-0 = test system: 786-0
A498 = test system: A498
A549 = test system: A549
ACHN = test system: ACHN
BT-549 = test system: BT-549
CAKI-1 = test system: CAKI-1
CCRF-CEM = test system: CCRF-CEM
COLO 205 = test system: COLO 205
DU-145 = test system: DU-145
EKVX = test system: EKVX
HCC 2998 = test system: HCC 2998
HCT-116 = test system: HCT-116
HCT-15 = test system: HCT-15
HL-60 = test system: HL-60
HOP-62 = test system: HOP-62
HT-29 = test system: HT-29
Hs-578T = test system: Hs-578T
IGROV-1 = test system: IGROV-1
K562 = test system: K562
KM12 = test system: KM12
LOX IMVI = test system: LOX IMVI
M14 = test system: M14
MCF7 = test system: MCF7
MDA-MB-231 = test system: MDA-MB-231
MDA-MB-435 = test system: MDA-MB-435
MDA-N = test system: MDA-N
MOLT-4 = test system: MOLT-4
Malme-3M = test system: Malme-3M
NCI-H226 = test system: NCI-H226
NCI-H23 = test system: NCI-H23
NCI-H460 = test system: NCI-H460
NCI/ADR-RES = test system: NCI/ADR-RES
OVCAR-3 = test system: OVCAR-3
OVCAR-4 = test system: OVCAR-4
OVCAR-5 = test system: OVCAR-5
OVCAR-8 = test system: OVCAR-8
PC-3 = test system: PC-3
RPMI-8226 = test system: RPMI-8226
RXF 393 = test system: RXF 393
SF-268 = test system: SF-268
SF-295 = test system: SF-295
SF-539 = test system: SF-539
SK-MEL-28 = test system: SK-MEL-28
SK-MEL-5 = test system: SK-MEL-5
SK-OV-3 = test system: SK-OV-3
SN12C = test system: SN12C
SNB-19 = test system: SNB-19
SNB-75 = test system: SNB-75
SR = test system: SR
SW-620 = test system: SW-620
TK-10 = test system: TK-10
U-251 = test system: U-251
UACC-257 = test system: UACC-257
UACC-62 = test system: UACC-62
UO-31 = test system: UO-31

O=C(C(=O)c1cc(-c2ccccc2)nc2ccc3ccccc3c12)c1ccccc1
GI50 (786-0): 33.5 µM (inactive) | GI50 (A498): 90.4 µM (inactive) | GI50 (A549): 68.4 µM (inactive) | GI50 (ACHN): > 100 µM (inactive) | GI50 (BT-549): 65.8 µM (inactive) | GI50 (CAKI-1): 58.3 µM (inactive) | GI50 (CCRF-CEM): 24.7 µM (inactive) | GI50 (COLO 205): 88.1 µM (inactive) | GI50 (DU-145): > 100 µM (inactive) | GI50 (EKVX): 76.9 µM (inactive) | GI50 (HCC 2998): > 100 µM (inactive) | GI50 (HCT-116): 10.6 µM (inactive) | GI50 (HCT-15): 75 µM | GI50 (HL-60): 20.7 µM (inactive) | GI50 (HOP-62): 31.6 µM (inactive) | GI50 (HT-29): > 100 µM (inactive) | GI50 (Hs-578T): 20.7 µM (inactive) | GI50 (IGROV-1): 37.9 µM (inactive) | GI50 (K562): 18.5 µM (inactive) | GI50 (KM12): 31.3 µM (inactive) | GI50 (LOX IMVI): 52 µM (inactive) | GI50 (M14): 67.5 µM (inactive) | GI50 (MCF7): 28.1 µM (inactive) | GI50 (MDA-MB-231): > 100 µM (inactive) | GI50 (MDA-MB-435): 33.2 µM (inactive) | GI50 (MDA-N): 36.1 µM (inactive) | GI50 (MOLT-4): 22.1 µM (inactive) | GI50 (Malme-3M): 27.8 µM (inactive) | GI50 (NCI-H226): 72.6 µM (inactive) | GI50 (NCI-H23): 34.1 µM (inactive) | GI50 (NCI-H460): > 100 µM (inactive) | GI50 (NCI/ADR-RES): 97.7 µM (inactive) | GI50 (OVCAR-3): 67.1 µM (inactive) | GI50 (OVCAR-4): 21.1 µM (inactive) | GI50 (OVCAR-5): > 100 µM (inactive) | GI50 (OVCAR-8): 61.2 µM (inactive) | GI50 (PC-3): 43.2 µM (inactive) | GI50 (RPMI-8226): > 100 µM (inactive) | GI50 (RXF 393): 39 µM (inactive) | GI50 (SF-268): 20.8 µM (inactive) | GI50 (SF-295): 52.5 µM (inactive) | GI50 (SF-539): 32.1 µM (inactive) | GI50 (SK-MEL-28): 28.6 µM (inactive) | GI50 (SK-MEL-5): 60.1 µM (inactive) | GI50 (SK-OV-3): 46.7 µM (inactive) | GI50 (SN12C): > 100 µM (inactive) | GI50 (SNB-19): 35.9 µM (inactive) | GI50 (SNB-75): 18.4 µM (inactive) | GI50 (SR): 11.7 µM (inactive) | GI50 (SW-620): 59 µM (inactive) | GI50 (TK-10): 99.3 µM (inactive) | GI50 (U-251): 34.5 µM (inactive) | GI50 (UACC-257): 75.7 µM (inactive) | GI50 (UACC-62): 38.8 µM (inactive) | GI50 (UO-31): > 100 µM (inactive)
